# Measurements published in ChEMBL document CHEMBL3132771, “Machine-assisted synthesis of modulators of the histone reader BRD9 using flow methods of chemistry and frontal affinity chromatography” (Medchemcomm, 2014).
# Activity calls are given as the source filed them. The rule behind the calls is not given here.
# Legend:
# [1] = biological target: T1, Bromodomain-containing protein 9 (Homo sapiens) (UniProt Q9H8M2); experiment: Binding affinity to human recombinant biotinylated BRD9 by UV spectrophotometric analysis
# T1 sequence (whole entry): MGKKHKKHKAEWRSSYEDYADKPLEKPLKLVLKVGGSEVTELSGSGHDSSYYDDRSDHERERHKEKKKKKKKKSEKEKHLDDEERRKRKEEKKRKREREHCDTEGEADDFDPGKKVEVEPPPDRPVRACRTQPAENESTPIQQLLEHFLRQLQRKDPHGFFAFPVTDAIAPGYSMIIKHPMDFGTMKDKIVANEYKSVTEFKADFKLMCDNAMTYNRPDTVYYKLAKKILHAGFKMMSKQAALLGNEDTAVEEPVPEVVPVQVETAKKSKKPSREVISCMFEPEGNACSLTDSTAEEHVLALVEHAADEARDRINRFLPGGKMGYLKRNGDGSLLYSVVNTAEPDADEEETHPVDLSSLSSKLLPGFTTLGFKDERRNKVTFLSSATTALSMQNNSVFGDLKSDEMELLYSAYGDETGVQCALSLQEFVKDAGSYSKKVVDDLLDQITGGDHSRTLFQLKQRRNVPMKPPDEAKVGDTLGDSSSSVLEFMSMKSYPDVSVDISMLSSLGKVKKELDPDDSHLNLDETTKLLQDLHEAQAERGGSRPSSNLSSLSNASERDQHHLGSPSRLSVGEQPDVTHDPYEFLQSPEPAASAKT
# [2] = biological target: CREB-binding protein (Homo sapiens) (UniProt Q92793); experiment: Binding affinity to CREBBP (unknown origin) at 4 uM by thermal shift assay
# Homo sapiens [3] = species on record: Homo sapiens; experiment: Binding affinity to EP300A (unknown origin) at 4 uM by thermal shift assay
# [4] = biological target: T1, Bromodomain-containing protein 9 (Homo sapiens); experiment: Binding affinity to human recombinant biotinylated BRD9 assessed as retention volume at 4 uM by FAC-MS analysis
# Homo sapiens [5] = species on record: Homo sapiens; experiment: Binding affinity to BRD1A (unknown origin) at 4 uM by thermal shift assay
# Peregrin (Homo sapiens) = biological target: T2, Peregrin (Homo sapiens) (UniProt P55201); experiment: Binding affinity to BRPF1 (unknown origin) at 4 uM by thermal shift assay
# T2 sequence (whole entry): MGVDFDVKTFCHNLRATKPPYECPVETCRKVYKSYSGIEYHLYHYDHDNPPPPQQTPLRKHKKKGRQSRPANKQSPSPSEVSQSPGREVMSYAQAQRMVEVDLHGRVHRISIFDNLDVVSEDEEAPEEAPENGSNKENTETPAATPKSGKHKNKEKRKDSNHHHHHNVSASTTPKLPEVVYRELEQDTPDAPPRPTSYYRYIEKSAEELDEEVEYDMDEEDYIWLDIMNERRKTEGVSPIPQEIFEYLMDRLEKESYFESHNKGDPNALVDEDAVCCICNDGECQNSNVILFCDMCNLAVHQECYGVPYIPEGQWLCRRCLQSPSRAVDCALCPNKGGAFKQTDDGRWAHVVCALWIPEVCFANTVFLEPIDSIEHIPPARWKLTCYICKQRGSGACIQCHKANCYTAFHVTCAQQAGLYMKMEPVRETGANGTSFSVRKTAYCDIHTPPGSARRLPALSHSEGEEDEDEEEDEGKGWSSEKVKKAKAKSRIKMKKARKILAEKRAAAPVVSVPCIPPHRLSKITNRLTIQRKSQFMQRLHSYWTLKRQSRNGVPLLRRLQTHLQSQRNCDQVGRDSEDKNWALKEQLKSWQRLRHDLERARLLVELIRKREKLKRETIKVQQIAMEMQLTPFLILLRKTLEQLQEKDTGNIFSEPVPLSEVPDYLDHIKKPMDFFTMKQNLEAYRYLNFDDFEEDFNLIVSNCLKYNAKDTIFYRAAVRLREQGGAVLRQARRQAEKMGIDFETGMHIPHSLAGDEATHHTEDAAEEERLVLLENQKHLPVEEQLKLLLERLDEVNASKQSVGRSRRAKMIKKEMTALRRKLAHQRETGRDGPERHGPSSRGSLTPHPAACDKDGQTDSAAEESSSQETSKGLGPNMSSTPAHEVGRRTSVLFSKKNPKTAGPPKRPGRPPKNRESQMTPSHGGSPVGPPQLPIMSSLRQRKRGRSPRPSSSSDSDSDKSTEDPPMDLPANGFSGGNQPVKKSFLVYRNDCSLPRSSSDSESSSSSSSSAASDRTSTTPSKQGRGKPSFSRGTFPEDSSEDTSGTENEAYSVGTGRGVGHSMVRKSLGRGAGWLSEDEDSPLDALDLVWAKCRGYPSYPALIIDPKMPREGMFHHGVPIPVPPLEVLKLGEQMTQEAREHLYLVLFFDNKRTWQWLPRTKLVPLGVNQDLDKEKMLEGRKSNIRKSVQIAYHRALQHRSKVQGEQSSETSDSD
# [6] = biological target: Bromodomain-containing protein 4 (Homo sapiens) (UniProt O60885); experiment: Binding affinity to BRD4 (unknown origin) at 4 uM by thermal shift assay
# [7] = biological target: T3, Transcription intermediary factor 1-alpha (Homo sapiens) (UniProt O15164); experiment: Binding affinity to TIF1 (unknown origin) at 4 uM by thermal shift assay
# T3 sequence (whole entry): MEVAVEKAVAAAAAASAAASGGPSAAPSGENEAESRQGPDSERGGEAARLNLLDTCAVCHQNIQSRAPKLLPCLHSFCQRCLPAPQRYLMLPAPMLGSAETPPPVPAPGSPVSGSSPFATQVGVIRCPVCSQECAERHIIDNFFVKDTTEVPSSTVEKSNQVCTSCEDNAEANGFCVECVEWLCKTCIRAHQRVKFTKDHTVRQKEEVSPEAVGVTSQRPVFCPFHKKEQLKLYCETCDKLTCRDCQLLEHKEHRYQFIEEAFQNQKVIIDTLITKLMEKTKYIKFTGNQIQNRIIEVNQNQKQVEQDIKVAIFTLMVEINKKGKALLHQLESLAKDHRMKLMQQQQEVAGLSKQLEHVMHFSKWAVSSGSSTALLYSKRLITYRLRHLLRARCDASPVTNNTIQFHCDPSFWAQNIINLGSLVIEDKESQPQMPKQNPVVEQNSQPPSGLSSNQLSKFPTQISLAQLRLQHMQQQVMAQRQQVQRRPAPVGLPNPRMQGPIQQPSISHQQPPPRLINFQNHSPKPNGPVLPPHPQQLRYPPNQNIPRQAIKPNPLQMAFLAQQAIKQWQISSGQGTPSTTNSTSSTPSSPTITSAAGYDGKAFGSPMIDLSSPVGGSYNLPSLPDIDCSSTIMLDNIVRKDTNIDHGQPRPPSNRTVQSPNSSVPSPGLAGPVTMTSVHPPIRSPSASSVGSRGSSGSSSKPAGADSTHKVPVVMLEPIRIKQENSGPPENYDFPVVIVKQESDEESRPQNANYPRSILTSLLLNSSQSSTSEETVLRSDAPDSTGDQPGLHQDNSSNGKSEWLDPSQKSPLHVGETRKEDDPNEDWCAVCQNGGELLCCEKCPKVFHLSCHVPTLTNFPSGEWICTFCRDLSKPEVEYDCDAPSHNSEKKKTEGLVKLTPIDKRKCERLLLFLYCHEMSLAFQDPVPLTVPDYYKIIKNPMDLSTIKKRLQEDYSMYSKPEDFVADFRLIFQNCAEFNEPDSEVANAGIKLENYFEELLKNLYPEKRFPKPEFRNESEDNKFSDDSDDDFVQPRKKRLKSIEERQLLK
# [8] = biological target: Chromatin remodeling regulator CECR2 (Homo sapiens) (UniProt Q9BXF3); experiment: Binding affinity to CECR2 (unknown origin) at 4 uM by thermal shift assay
# [9] = biological target: T4, Bromodomain and PHD finger-containing protein 3 (Homo sapiens) (UniProt Q9ULD4); experiment: Binding affinity to BRPF3 (unknown origin) at 4 uM by thermal shift assay
# T4 sequence (whole entry): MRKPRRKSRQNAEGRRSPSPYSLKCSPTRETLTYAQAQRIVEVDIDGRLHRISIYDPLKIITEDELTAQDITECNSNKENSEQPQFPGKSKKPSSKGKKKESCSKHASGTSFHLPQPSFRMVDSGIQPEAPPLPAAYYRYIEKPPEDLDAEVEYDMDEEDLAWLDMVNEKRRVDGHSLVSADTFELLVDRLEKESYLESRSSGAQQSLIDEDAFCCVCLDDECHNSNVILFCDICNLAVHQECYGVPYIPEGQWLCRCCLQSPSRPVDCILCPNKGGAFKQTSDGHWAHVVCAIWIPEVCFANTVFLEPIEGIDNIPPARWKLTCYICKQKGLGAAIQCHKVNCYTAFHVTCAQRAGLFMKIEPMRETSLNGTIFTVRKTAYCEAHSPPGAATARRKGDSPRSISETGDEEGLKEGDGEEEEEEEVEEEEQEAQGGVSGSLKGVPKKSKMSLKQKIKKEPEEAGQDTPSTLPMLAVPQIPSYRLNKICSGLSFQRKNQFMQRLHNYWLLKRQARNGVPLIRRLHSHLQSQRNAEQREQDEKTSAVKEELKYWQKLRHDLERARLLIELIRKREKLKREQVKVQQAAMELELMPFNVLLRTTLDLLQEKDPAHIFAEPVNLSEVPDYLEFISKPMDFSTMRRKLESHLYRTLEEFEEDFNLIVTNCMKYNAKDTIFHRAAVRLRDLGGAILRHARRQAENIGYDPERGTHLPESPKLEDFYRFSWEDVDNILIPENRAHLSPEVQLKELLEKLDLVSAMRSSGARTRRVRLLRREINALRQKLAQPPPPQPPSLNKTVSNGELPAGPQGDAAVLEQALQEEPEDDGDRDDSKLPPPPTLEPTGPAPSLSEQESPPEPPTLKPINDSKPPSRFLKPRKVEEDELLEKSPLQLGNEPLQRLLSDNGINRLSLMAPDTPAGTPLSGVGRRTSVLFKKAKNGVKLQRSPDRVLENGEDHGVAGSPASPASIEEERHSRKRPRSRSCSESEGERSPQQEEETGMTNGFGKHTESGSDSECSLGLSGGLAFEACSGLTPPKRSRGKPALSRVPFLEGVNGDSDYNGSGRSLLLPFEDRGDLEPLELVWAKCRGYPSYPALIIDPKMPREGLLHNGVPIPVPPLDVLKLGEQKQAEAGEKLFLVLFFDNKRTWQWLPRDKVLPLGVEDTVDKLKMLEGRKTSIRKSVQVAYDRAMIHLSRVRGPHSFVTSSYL
# [10] = biological target: T1, Bromodomain-containing protein 9 (Homo sapiens); experiment: Binding affinity to human recombinant biotinylated BRD9 assessed as change in melting temperature at 4 uM by thermal shift assay
# [11] = biological target: T1, Bromodomain-containing protein 9 (Homo sapiens); experiment: Binding affinity to human recombinant biotinylated BRD9 assessed as retention volume at 50 uM by FAC-MS analysis
# [12] = biological target: T1, Bromodomain-containing protein 9 (Homo sapiens); experiment: Binding affinity to human recombinant biotinylated BRD9 at 4 uM after 120 mins by FAC-MS analysis
# [13] = biological target: T5, Bromodomain-containing protein 9 (Homo sapiens, UniProt Q9H8M2); experiment: Binding affinity to human recombinant biotinylated BRD9 compound treated in ammonium acetate buffer by FAC-MS analysis
# T5 sequence (Q9H8M2 whole entry): T1 sequence (whole entry)
# [14] = biological target: T5, Bromodomain-containing protein 9; experiment: Binding affinity to human recombinant biotinylated BRD9 compound treated in PBS buffer by FAC-MS analysis
# Chromatin remodeling regulator CECR2 (Homo sapiens), sequence (Q9BXF3 whole entry, looked up): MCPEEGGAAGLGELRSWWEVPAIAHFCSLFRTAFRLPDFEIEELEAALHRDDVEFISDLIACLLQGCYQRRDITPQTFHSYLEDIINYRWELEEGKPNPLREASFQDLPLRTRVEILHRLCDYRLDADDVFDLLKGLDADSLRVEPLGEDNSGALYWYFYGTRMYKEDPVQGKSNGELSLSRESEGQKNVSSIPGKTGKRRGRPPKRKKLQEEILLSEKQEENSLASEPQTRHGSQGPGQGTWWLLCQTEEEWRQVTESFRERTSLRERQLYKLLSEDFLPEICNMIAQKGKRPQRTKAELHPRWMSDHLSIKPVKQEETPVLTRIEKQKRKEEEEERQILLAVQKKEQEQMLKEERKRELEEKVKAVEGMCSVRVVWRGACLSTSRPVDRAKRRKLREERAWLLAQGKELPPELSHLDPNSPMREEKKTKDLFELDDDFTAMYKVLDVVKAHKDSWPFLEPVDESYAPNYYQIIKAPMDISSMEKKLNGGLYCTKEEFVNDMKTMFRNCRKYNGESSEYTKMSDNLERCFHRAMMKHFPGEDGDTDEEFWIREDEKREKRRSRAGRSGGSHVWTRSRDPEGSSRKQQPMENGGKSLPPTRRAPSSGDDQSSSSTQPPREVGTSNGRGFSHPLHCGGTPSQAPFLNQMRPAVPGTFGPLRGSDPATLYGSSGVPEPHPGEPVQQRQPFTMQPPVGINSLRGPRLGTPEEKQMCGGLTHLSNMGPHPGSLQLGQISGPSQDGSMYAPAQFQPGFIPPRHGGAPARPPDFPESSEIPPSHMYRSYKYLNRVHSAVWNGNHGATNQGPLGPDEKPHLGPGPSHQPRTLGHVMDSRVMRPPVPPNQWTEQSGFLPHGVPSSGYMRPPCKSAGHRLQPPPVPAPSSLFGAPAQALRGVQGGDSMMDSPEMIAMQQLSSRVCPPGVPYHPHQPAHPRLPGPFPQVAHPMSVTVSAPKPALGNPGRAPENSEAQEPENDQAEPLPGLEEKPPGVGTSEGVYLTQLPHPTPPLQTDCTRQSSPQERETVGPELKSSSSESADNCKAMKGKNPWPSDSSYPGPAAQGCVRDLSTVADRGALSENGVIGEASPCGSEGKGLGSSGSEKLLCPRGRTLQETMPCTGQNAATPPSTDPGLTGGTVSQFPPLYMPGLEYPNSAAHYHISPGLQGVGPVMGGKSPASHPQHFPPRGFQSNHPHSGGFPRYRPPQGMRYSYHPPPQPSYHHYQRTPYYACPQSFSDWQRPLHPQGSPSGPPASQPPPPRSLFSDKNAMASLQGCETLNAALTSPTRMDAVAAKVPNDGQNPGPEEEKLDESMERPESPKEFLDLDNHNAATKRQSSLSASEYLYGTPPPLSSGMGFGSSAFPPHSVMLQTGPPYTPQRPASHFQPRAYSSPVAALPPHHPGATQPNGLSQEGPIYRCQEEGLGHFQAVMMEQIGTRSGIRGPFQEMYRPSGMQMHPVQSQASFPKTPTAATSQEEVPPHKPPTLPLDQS
# CREB-binding protein (Homo sapiens), sequence (Q92793 2-2442 limits assumed): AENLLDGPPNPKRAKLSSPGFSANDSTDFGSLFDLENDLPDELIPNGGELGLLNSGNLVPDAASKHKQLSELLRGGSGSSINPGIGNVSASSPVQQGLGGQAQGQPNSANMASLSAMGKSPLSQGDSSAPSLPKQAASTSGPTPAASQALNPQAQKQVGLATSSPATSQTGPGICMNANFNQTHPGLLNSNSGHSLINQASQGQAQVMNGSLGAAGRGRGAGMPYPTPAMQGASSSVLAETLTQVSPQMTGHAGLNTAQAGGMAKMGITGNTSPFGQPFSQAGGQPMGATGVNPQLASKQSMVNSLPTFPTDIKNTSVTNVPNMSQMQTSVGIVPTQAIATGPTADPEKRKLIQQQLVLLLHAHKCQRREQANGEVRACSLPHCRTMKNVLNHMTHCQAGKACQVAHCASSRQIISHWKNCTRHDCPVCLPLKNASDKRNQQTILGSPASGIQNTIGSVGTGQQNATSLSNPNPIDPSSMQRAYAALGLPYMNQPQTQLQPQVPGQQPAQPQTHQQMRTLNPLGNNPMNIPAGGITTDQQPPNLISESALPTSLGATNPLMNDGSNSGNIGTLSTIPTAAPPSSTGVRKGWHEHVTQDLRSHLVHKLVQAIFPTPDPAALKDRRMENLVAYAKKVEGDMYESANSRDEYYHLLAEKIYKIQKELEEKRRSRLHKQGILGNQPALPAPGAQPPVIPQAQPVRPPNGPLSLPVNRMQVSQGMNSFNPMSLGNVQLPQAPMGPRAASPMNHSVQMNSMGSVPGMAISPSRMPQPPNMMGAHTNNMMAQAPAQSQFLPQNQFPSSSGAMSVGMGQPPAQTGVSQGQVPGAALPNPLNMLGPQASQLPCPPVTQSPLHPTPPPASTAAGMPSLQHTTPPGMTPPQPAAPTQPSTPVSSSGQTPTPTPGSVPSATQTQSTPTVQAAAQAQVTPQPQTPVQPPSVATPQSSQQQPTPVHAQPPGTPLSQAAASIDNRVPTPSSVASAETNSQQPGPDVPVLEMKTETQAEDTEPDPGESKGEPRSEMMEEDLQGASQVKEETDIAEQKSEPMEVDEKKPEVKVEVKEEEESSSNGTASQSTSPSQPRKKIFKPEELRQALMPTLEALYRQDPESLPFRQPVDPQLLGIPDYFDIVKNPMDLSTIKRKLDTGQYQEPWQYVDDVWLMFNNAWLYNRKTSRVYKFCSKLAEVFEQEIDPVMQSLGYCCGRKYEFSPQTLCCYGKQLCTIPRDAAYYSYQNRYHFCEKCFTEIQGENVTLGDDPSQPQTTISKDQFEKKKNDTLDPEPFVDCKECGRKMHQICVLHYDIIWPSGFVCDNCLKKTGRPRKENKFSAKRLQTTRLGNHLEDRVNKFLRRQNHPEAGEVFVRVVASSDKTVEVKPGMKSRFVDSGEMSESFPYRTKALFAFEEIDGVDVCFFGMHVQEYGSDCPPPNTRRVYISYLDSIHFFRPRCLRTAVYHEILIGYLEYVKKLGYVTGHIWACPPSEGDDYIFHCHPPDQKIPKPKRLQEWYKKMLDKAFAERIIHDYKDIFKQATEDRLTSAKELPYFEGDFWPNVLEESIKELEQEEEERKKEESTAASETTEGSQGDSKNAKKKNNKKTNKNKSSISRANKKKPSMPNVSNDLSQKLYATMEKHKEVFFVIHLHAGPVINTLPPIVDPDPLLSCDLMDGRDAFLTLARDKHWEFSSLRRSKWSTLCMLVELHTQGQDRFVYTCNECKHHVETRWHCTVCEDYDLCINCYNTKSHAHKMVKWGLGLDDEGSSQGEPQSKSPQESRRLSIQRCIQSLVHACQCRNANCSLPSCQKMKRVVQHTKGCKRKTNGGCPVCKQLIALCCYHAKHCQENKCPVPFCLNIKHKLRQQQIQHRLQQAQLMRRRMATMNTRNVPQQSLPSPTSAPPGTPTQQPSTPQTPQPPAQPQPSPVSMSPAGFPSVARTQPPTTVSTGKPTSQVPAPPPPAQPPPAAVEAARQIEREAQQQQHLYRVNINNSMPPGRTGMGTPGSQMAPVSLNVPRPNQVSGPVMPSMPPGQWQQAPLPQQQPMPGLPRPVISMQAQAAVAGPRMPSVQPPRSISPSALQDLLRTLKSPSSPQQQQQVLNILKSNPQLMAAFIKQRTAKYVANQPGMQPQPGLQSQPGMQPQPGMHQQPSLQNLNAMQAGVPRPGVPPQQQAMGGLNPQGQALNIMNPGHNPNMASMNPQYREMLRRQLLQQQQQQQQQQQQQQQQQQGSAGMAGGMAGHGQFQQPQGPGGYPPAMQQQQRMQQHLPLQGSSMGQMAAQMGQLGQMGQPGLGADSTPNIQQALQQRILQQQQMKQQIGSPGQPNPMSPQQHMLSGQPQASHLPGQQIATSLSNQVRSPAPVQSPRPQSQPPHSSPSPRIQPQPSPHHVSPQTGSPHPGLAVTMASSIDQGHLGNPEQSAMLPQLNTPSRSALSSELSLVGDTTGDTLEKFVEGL
SMILES,Activity [1],Activity [2],Activity (Homo sapiens [3]),Activity [4],Activity (Homo sapiens [5]),Activity (Peregrin (Homo sapiens)),Activity [6],Activity [7],Activity [8],Activity [9],ΔTm [10],also measured
Cc1ccc(-c2cc(N)c3nnc(C)n3n2)cc1NS(=O)(=O)c1ccccc1Cl,Active,–,–,784 µL,–,–,Active,–,–,–,2.4 °C,–
Cc1ccc(-c2cc(N)c3nnc(C)n3n2)cc1NS(=O)(=O)c1ccc(Cl)c(Cl)c1,Active,–,Active,1170 µL,–,–,Active,–,–,–,4.3 °C,–
CCOC(=O)N(c1cc(-c2cc(N)c3nnc(C)n3n2)ccc1C)S(=O)(=O)c1ccc(Cl)cc1,Active,inactive,inactive,947 µL,inactive,inactive,inactive,inactive,inactive,inactive,2.7 °C,–
Cc1nnc2c(N)cc(Cl)nn12,Active,–,–,–,–,–,–,–,–,–,–,–
CCOC(=O)Nc1cc(-c2ccc(C)c(NS(C)(=O)=O)c2)nn2c(C)nnc12,–,–,–,> 3600 µL,–,–,–,–,–,–,8.8 °C,Activity [11]: 324 µL; Activity [12]: inactive
CCOC(=O)N(c1cc(-c2cc(N)c3nnc(C)n3n2)ccc1C)S(=O)(=O)c1ccccc1Cl,Active,–,–,–,–,–,–,–,–,–,–,–
Cc1nnc2c(NC(=O)OC(C)(C)C)cc(-c3ccccc3)nn12,–,–,–,–,–,–,–,–,–,–,–,Kd [13]: 8.35 µM; Kd [14]: 8.35 µM
Cc1ccc(-c2cc(N)c3nnc(C)n3n2)cc1NS(=O)(=O)c1cccc(Cl)c1,Active,–,–,–,–,–,–,–,–,–,–,–

# Continued, in another order:
Activity [1],Activity [2],Activity (Homo sapiens [3]),Activity [4],Activity (Homo sapiens [5]),Activity (Peregrin (Homo sapiens)),Activity [6],Activity [7],Activity [8],Activity [9],ΔTm [10],SMILES,also measured
Active,inactive,inactive,270 µL,inactive,inactive,inactive,inactive,inactive,inactive,0.6 °C,COc1ccc(-c2ccc3nnc(C(F)(F)F)n3n2)cc1,–
Active,inactive,inactive,212 µL,inactive,inactive,inactive,inactive,inactive,inactive,-0.6 °C,FC(F)(F)c1nnc2ccc(-c3ccccc3)nn12,–
